Entries after “also recorded” stand apart in the source; their conditions may differ. Bounds are passed on as bounds.

This note sets out measurements from US11421204B2, “Method of removing pluripotent cells from culture” (REPROCELL INCORPORATED, priority 2015, dated 2022).

For data set [1], the system named is neuron performed differentiation induction from the human iPS cell (ReproNeuro). Put plainly: Evaluation of effects of ALA-PDT for neuron originated from iPS cell. In kind it is cell-based. Particulars: red LED 10 minutes. As for the experimental part:
Then, the effects by ALA-PDT for the neuron performed differentiation induction from the human iPS cell (neuron originated from iPS cell) were evaluated. The used neuron was ReproNeuro. […] After that, the cell form was observed. Then, the cultured neuron was irradiated with red LED (wavelength of 635 nm) for 10 minutes, and the cell form was observed after 12-hour progresses (overnight). Then, it was exchanged the culture medium, which ALA was not included, and the cell form was observed after cultivating with exchanging the culture media for seven days.

The next data set has as its system RC010 (iPS cell line). Put plainly: ALA-PDT on iPS cell line RC010, cell survival by CCK8 (Example 2). In kind it is cell-based, human. The conditions noted are these: ALA hydrochloride 125-1000 micro-M, 4 or 24 hours, red LED 10 minutes, cell wraps r11-r13: SURVIVAL/PROLIFERATION SUPPRESSION
The protocol: (§1) As pluripotent stem cell lines, separately, for 201B7 cell line, which is equivalent as above-mentioned Example 1, and for RC001 and RC010 (ReproCELL Inc.), after maintaining as like above-mentioned Example 1, evaluations of the ALA effects were performed.
(§2) Then, each of them was cultivated with culture medium added ALA hydrochloride having concentration (0, 125, 250, 500, 1000 micro-M), respectively.

In data set [2] the test system is 201B7 cell line (iPS cell). Nature of the data set: ALA-PDT on iPS cell line 201B7, cell survival by CCK8 (Example 2). Particulars: for rate of cell survival as compared with the control: 201B7.
For data set [3], the system named is hepatic cell originated from human iPS cell. Nature of the data set: Evaluation of effect of ALA-PDT for hepatic cells of iPS cell origin. Type of data set: cell-based. As for the experimental part: The effect by ALA-PDT was evaluated for a hepatic cell originated from human iPS cell equivalent to the above-mentioned Example 1. At this example, the culture condition was plating 500,000 cells per well in a 24-well plate, then each concentration (0, 250, 500 micro-M) of ALA hydrochloride was added to the cell on the seventh day, photoirradiation was performed for 10 minutes by red LED 24 hours afterward, then form observation was carried out on the next day and after. The irradiation power of red LED was the same as that of above-mentioned case.

The test system of another data set is RC001 (iPS cell line). Put plainly: ALA-PDT on iPS cell line RC001, cell survival by CCK8 (Example 2). Type of data set: cell-based, human. Particulars: ALA hydrochloride 125-1000 micro-M, 4 or 24 hours, red LED 10 minutes, cell wraps r8-r10: SURVIVAL/PROLIFERATION SUPPRESSION
As for the experimental part: as §1, §2

In another data set the test system is human iPS cell. Put plainly: Comparison of effects by ALA concentration of ALA-PDT for iPS cell (CCK8). In kind it is cell-based. The protocol: Then, in ALA-PDT for the human iPS cell, the effects for changing the concentration of ALA were compared.
(§3) The iPS cell performed the passage process as well as an above-mentioned process was incubated for 2 to 4 minutes by using CTK (collagenase trypsin KSR) in 37 degree-C and then separated by pipetting.

For data set [4], the system named is iPS cell (cell line 201B7). Put plainly: Evaluation of effects of ALA and/or SFC for iPS cell without photoirradiation (cell form). In kind it is cell-based, human. The conditions noted are these: ALA 1000 micro-M; observed 0, 4, 24, 48 hours after addition; no PDT. The text has this: As a pluripotent stem cell line, a human iPS cell line (iPSC) established at ReproCELL Inc. and subcultured 50 times was used. For on-feeder cultivation, the cell line of the pluripotent stem cell was maintained on mouse embryonic fibroblast (MEF) feeder cell (RCHEFC003, ReproCELL Inc.) processed by mitomycin C in a 60-mm polystyrene plate (dish) coated by ReproCoat (ReproCELL Inc.) with culture medium for pluripotent stem cells (Primate ES cell medium, RCHEMD001, ReproCELL Inc.) as like the conventional technique. ReproCoat was coated by using on a plate at the concentration of 0.2 micro-g/cm^2 and allowing to keep it at 4 degree-Celsius, overnight.
34 mg of ALA hydrochloride (M. W.=167.6, SBI Pharmaceuticals Co., Ltd.) was weighed, and 1000 micro-L of PBS (−) (Wako Pure Chemical Industries Ltd.) were added. Thereby, 200 mM ALA solution was prepared. The solution of the prepared ALA hydrochloride (hereinafter, it is only called as “ALA solution”) was stored on a freezer at −20 degree-C until use.

In data set [5] the test system is iPS cell (cell line 201B7). Nature of the data set: Comparison of effects by wavelength of photoirradiation of ALA-PDT for iPS cell. Type of data set: cell-based, human. Particulars: ALA 100 or 1000 micro-M for 4 hours, red or blue LED 10 minutes, 24 hours afterward. The protocol: Then, the effect by the difference of the wavelength in the photoirradiation of ALA-PDT for a human iPS cell was compared.
Then, the cultured iPS cell was irradiated with red LED (wavelength of 635 nm) or blue LED (wavelength of 405 nm) for 10 minutes, and the cell form was observed 24 hours afterward.
Culture conditions were: used cell line: 201B7 and used culture-medium: Primate ES Cell Medium.

The test system of data set [6] is iPS cell (cell line 201B7). Nature of the data set: Evaluation of effects of ALA-PDT for iPS cell (cell form, ALP expression). Type of data set: cell-based, human. Particulars: ALA 1000 micro-M and/or SFC 500 micro-M for 48 hours, blue LED 10 minutes, 24 hours afterward; Blue Alkaline Phosphatase Substrate Kit III.
For data set [7], the system named is normal human dermal fibroblast (HDF). Nature of the data set: Comparison of effects by ALA concentration of ALA-PDT for HDF (CCK8). In kind it is cell-based. The conditions noted are these: ALA 0-1000 micro-M, 4 hours, red LED 10 minutes, CCK8 24 hours afterward. The protocol:
Also, the commercial normal human dermal fibroblast (CA106K05a, Cell Applications Inc., HDF) was used for comparative example(s).
as §3
About a normal human dermal fibroblast (HDF), based on the equivalent conditions as above-mentioned “comparison of effects by ALA hydrochloride concentration and photoirradiation of ALA-PDT for iPS cell”, the effects of the ALA concentration and ALA-PDT were compared.

Setting [8] is: 250 micro-M ALA hydrochloride for 24 hours, red LED 10 minutes.

Take `NCC(=O)CCC(=O)O` [ALA, delta-aminolevulinic acid]: the “survival of neuron after ALA-PDT” value in [1] (ALA 250, 500 micro-M for 4 hours, cultivation continued for seven days) was “continued surviving without extinction and recovered as like the condition before ALA addition”. For the same compound, the “cell adhesion and neural spine seven days after ALA-PDT” value in [1] (seven days after adding 250 micro-M, 500 micro-M ALA) was “cell adhesion could be confirmed, and the neural spine was elongating in all of them”. Besides, the “EFFECT BY ALA” value in the data set with RC010 (iPS cell line) was “Survival and proliferation for each cell line were suppressed”; in data set [2] (cell line 201B7, ALA hydrochloride 125-1000 micro-M, 4 or 24 hours, red LED 10 minutes, CCK8, cell wraps r5-r7: SURVIVAL/PROLIFERATION SUPPRESSION), “Survival and proliferation for each cell line were suppressed”; in the data set on RC001 (iPS cell line) it was “Survival and proliferation for each cell line were suppressed”. Also, the “rate of cell survival as compared with the control” value was found to be 65% in data set [2] (250 micro-M ALA, after-addition time 4 hours, red LED 10 minutes, CCK8) and 7% in data set [2] (after-addition time 24 hours, red LED 10 minutes, CCK8). Besides, the “rate of cell survival with after-addition time longer than 24 hours, compared with 24 hours” value in data set [2] (preliminary experiment) was “there is no change the rate of cell survival”. In data set [3] (setting [8]), the “form observation of hepatic cells 24 hours after LED irradiation” value was “the cell with clear cobblestone morphology and nucleus remained”. Also, the “form observation of hepatic cells 48 hours after LED irradiation” value in data set [3] (setting [8]) is “the cell with cobblestone morphology and nucleus continued surviving”. Besides, the “protection of hepatic cells from ALA-PDT” value in data set [3] (250 micro-M ALA, preliminary experiment) was “it was protected”. Also, in data set [3] (ALA hydrochloride 250 and 500 micro-M, red LED 10 minutes, 24 and 60 hours after irradiation), the “survival of hepatic cells after ALA-PDT” value is recorded as “survived under the various conditions of ALA-PDT were present”. Moreover, in [3] (ALA hydrochloride 250 vs 500 micro-M, red LED 10 minutes), the “state of survived hepatic cells, 250 micro-M versus 500 micro-M (visual inspection)” value is “the state of the survived cells under the condition of 250 micro-M were better than that of 500 micro-M”. Moreover, the “cell death of the iPS cell by ALA-PDT” value with human iPS cell (ALA concentration greater than or equal to 250 micro-M, 4 hours after addition red LED 10 minutes, CCK8 24 hours afterward) is at least 60%. For the same compound, in the data set on human iPS cell (ALA concentration greater than or equal to about 100 micro-M, other experiment (not shown)), the “cell death of iPS cell by ALA-PDT” value was at least 10%. Further, the “influence on the iPS cell (cell form, undifferentiated form) without photoirradiation” value in [4] was “influence on the iPS cell was not observed”. Besides, the “expression of ALP (undifferentiated state) after ALA-PDT, red vs blue LED” value in [5] is given as “it became impossible to maintain the undifferentiated state”. The “undifferentiated state by expression of ALP after ALA-PDT” value in data set [6] is “ALP became negative; also recorded: an undifferentiated iPS cell was no longer observed”. The “induction of cell death of HDF by ALA-PDT (CCK8)” value in data set [7] is “induction of the cell death by ALA-PDT was not observed”.

Take sodium ferrous citrate [SFC]: in data set [6], the “undifferentiated state by expression of ALP after ALA-PDT” value is recorded as “maintaining the undifferentiated-like state”.
